Data from ChEMBL document CHEMBL2146368, “Protective effects of caffeoylquinic acids on the aggregation and neurotoxicity of the 42-residue amyloid β-protein” (Bioorg Med Chem, 2012).
Activity calls are given as the source filed them. No cut-off for these calls is given here.

Key:
[1] = molecular target: T1, Amyloid-beta precursor protein (Homo sapiens, UniProt P05067); experiment: Inhibition of human amyloid beta (1 to 42) fibril formation at 50 uM after 24 hrs by transmission electron microscopic analysis
T1 sequence (P05067 whole entry): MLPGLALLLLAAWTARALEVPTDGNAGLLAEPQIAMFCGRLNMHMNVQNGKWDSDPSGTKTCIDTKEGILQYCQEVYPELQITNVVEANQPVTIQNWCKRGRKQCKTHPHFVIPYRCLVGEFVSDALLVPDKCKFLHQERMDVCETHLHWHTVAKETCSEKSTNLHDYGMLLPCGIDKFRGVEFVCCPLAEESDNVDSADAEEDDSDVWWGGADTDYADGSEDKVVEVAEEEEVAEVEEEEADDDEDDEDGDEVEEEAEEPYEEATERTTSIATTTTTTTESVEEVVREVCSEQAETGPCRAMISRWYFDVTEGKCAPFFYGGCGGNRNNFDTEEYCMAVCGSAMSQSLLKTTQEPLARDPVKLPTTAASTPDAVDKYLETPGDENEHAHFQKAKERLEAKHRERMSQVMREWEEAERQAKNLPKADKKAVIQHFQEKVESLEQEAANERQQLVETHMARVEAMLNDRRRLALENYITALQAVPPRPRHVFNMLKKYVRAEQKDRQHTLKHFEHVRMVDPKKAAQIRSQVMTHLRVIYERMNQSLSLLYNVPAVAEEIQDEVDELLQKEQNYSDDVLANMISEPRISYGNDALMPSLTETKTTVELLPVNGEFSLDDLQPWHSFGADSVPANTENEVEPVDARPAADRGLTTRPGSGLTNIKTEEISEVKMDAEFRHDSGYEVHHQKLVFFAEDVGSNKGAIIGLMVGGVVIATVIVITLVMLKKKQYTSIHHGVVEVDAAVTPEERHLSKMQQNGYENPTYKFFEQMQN

[2] = molecular target: T1, Amyloid-beta precursor protein; experiment: Inhibition of amyloid beta (1 to 42)-mediated neurotoxicity in human SH-SY5Y cells assessed as increase in cell viability at 20 uM after 48 hrs by MTT assay; assay type: cell-based
[3] = molecular target: T1, Amyloid-beta precursor protein; experiment: Inhibition of human amyloid beta (1 to 42) beta-sheet formation at 50 uM after 12 to 24 hrs by CD-spectra analysis
[4] = molecular target: T1, Amyloid-beta precursor protein; experiment: Inhibition of human amyloid beta (1 to 42) aggregation after 24 hrs by thioflavin-T fluorescence assay
[5] = molecular target: T1, Amyloid-beta precursor protein; experiment: Inhibition of human amyloid beta (1 to 42) oligomerization assessed as decrease in trimer formation at 25 uM after 2 hrs by Western blot analysis
[6] = molecular target: T1, Amyloid-beta precursor protein; experiment: Inhibition of human amyloid beta (1 to 42) oligomerization at 90 uM after 24 to 144 hrs by Dot blot analysis
[7] = molecular target: T1, Amyloid-beta precursor protein; experiment: Inhibition of human amyloid beta (1 to 42) aggregation at 1 to 100 uM after 24 hrs by thioflavin-T fluorescence assay
[8] = molecular target: T1, Amyloid-beta precursor protein; experiment: Inhibition of amyloid beta (1 to 42)-mediated neurotoxicity in human SH-SY5Y cells assessed as increase in cell viability after 48 hrs by MTT assay; assay type: cell-based
[9] = molecular target: T1, Amyloid-beta precursor protein; experiment: Inhibition of human amyloid beta (1 to 42) aggregates by measuring monomer concentration at 20 uM after 48 hrs by thermodynamic stability assay
[10] = molecular target: T1, Amyloid-beta precursor protein; experiment: Inhibition of human amyloid beta (1 to 42) oligomerization assessed as decrease in trimer formation at 50 uM after 2 hrs by Western blot analysis

Compound: O=C(/C=C/c1ccc(O)c(O)c1)O[C@@H]1C[C@](O)(C(=O)O)C[C@@H](OC(=O)/C=C/c2ccc(O)c(O)c2)[C@H]1OC(=O)/C=C/c1ccc(O)c(O)c1
- inhibition [1]: Active
- Activity [2]: 96.1%
- inhibition [3]: Active
- IC50 [4]: 0.3 µM
- inhibition [5]: 87.6%
- inhibition [6]: Active
- inhibition [7]: Active
- inhibition [8]: Dose-dependent effect
- Activity [9]: 27 µM
- inhibition [10]: 63.1%

Compound: O=C(O)[C@]1(O)C[C@@H](O)[C@@H](O)[C@H](O)C1 (relative stereo) [QUINIC ACID]
- IC50 [4]: > 100 µM
- inhibition [7]: inactive
- Activity [9]: 1.2 µM
- inhibition [10]: 100%

Compound: O=C(/C=C/c1ccc(O)c(O)c1)O[C@@H]1[C@H](O)C[C@@](O)(C(=O)O)C[C@H]1OC(=O)/C=C/c1ccc(O)c(O)c1
- IC50 [4]: 4.7 µM
- inhibition [7]: Active

Compound: O=C(O)/C=C/c1ccc(O)c(O)c1 [CAFFEIC ACID]
- IC50 [4]: 32.8 µM
- inhibition [4]: Dose-dependent effect

Compound: COC(=O)[C@]1(O)C[C@@H](OC(=O)/C=C/c2ccc(O)c(O)c2)[C@@H](OC(=O)/C=C/c2ccc(O)c(O)c2)[C@H](OC(=O)/C=C/c2ccc(O)c(O)c2)C1
- IC50 [4]: 3 µM
- inhibition [7]: Active

Compound: COC(=O)[C@]1(O)C[C@@H](O)[C@@H](O)[C@H](OC(=O)/C=C/c2ccc(O)c(O)c2)C1 [CHLOROGENIC ACID METHYL ESTER]
- IC50 [4]: > 100 µM
- inhibition [7]: inactive

Compound: O=C(O)/C=C/c1ccccc1 [CINNAMIC ACID]
- IC50 [4]: > 100 µM
- inhibition [7]: inactive

Compound: O=C(/C=C/c1ccc(O)c(O)c1)O[C@@H]1C[C@](O)(C(=O)O)C[C@@H](O)[C@H]1O [CHLOROGENIC ACID]
- IC50 [4]: 92.9 µM
- inhibition [4]: Dose-dependent effect

Compound: O=C(/C=C/c1ccc(O)c(O)c1)O[C@@H]1C[C@](O)(C(=O)O)C[C@@H](OC(=O)/C=C/c2ccc(O)c(O)c2)[C@H]1O
- IC50 [4]: 16.4 µM
- inhibition [7]: Active

Compound: O=C(/C=C/c1ccc(O)c(O)c1)O[C@H]1[C@H](O)C[C@](OC(=O)/C=C/c2ccc(O)c(O)c2)(C(=O)O)C[C@H]1OC(=O)/C=C/c1ccc(O)c(O)c1
- IC50 [4]: 2.2 µM
- inhibition [7]: Active

Compound: O=C(/C=C/c1ccc(O)c(O)c1)O[C@H]1[C@H](O)C[C@](O)(C(=O)O)C[C@H]1OC(=O)/C=C/c1ccc(O)c(O)c1
- inhibition [1]: Active
- Activity [2]: 78.9%
- inhibition [3]: Active
- IC50 [4]: 0.1 µM
- inhibition [7]: Active
- inhibition [8]: Dose-dependent effect
- Activity [9]: 10 µM
